Source: PubChem BioAssay AID328 (DTP/NCI, 2004)
Values joined by “and” are separate entries in the source; they are usually repeats but may differ in a detail not shown here. Equal entries are not always repeated. Inconclusive results and toxic doses are left out. Residues, ends and D or L forms follow the SMILES beside them. *: point of attachment. Cbz = O=C(OCc1ccccc1)*

Test system: BDF1 mice, P388 leukemia ip, median survival T/C
Test: NCI In Vivo Anticancer Drug Screen. Data for tumor model P388 Leukemia (intraperitoneal) in B6D2F1 (BDF1) mice
Details: endpoint: median survival time, higher = longer survival
In short: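 Steps: implant the tumour, treat one group with compound and another with vehicle, record survival, then divide treated by control.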

[1] = dose: 12.5 mg/kg/injection, schedule: Q01DX009 (ip), vehicle: saline
[2] = dose: 25.0 mg/kg/injection, schedule: Q01DX009 (ip), vehicle: saline
[3] = dose: 50.0 mg/kg/injection, schedule: Q01DX009 (ip), vehicle: saline
[4] = dose: 50.0 mg/kg/injection, schedule: Q04DX003 (ip), vehicle: saline
[5] = dose: 100.0 mg/kg/injection, schedule: Q01DX009 (ip), vehicle: saline
[6] = dose: 100.0 mg/kg/injection, schedule: Q04DX003 (ip), vehicle: saline
[7] = dose: 200.0 mg/kg/injection, schedule: Q01DX009 (ip), vehicle: saline
[8] = dose: 50.0 mg/kg/injection, schedule: Q01DX009 (ip), vehicle: saline with Tween-80
[9] = dose: 100.0 mg/kg/injection, schedule: Q01DX009 (ip), vehicle: saline with Tween-80
[10] = dose: 200.0 mg/kg/injection, schedule: Q01DX009 (ip), vehicle: saline with Tween-80
[11] = dose: 6.25 mg/kg/injection, schedule: Q01DX009 (ip), vehicle: saline
[12] = dose: 100.0 mg/kg/injection, schedule: Q01DX009 (ip), vehicle: Klucel (hydroxypropylcellulose) (HPC)
[13] = dose: 100.0 mg/kg/injection, schedule: Q04DX003 (ip), vehicle: Klucel (hydroxypropylcellulose) (HPC)
[14] = dose: 200.0 mg/kg/injection, schedule: Q01DX009 (ip), vehicle: Klucel (hydroxypropylcellulose) (HPC)
[15] = dose: 200.0 mg/kg/injection, schedule: Q04DX003 (ip), vehicle: Klucel (hydroxypropylcellulose) (HPC)
[16] = dose: 400.0 mg/kg/injection, schedule: Q01DX009 (ip), vehicle: Klucel (hydroxypropylcellulose) (HPC)
[17] = dose: 400.0 mg/kg/injection, schedule: Q04DX003 (ip), vehicle: Klucel (hydroxypropylcellulose) (HPC)
[18] = dose: 100.0 mg/kg/injection, schedule: Q04DX003 (ip), vehicle: saline with Tween-80
[19] = dose: 400.0 mg/kg/injection, schedule: Q04DX003 (ip), vehicle: saline with Tween-80
[20] = dose: 12.5 mg/kg/injection, schedule: Q01DX009 (ip), vehicle: Klucel (hydroxypropylcellulose) (HPC)
[21] = dose: 25.0 mg/kg/injection, schedule: Q01DX009 (ip), vehicle: Klucel (hydroxypropylcellulose) (HPC)
[22] = dose: 50.0 mg/kg/injection, schedule: Q01DX009 (ip), vehicle: Klucel (hydroxypropylcellulose) (HPC)
[23] = dose: 25.0 mg/kg/injection, schedule: Q04DX003 (ip), vehicle: saline

CNC(=O)c1nc(C)c(C)nc1OCc1ccccc1 was tested, and the T/C [1] was 100 % of control, the T/C [2] was 95 % of control and 124 % of control and the T/C [3] was 97 % of control and 111 % of control. The T/C [4] was 111 % of control, the T/C [5] was 106 % of control and 109 % of control and the T/C [6] was 100 % of control. The T/C [7] was 91 % of control, the T/C (dose: 200.0 mg/kg/injection, schedule: Q04DX003 (ip), vehicle: saline) was 96 % of control and the T/C (dose: 300.0 mg/kg/injection, schedule: Q01DX009 (ip), vehicle: saline) was 97 % of control. For the same compound, the T/C (dose: 400.0 mg/kg/injection, schedule: Q01DX009 (ip), vehicle: saline) was 119 % of control and the T/C (dose: 400.0 mg/kg/injection, schedule: Q04DX003 (ip), vehicle: saline) was 88 % of control.

For COC(=O)c1ccccc1OP(=O)(N(C)C)N(C)C, the T/C [8] was 94 % of control, the T/C [9] was 110 % of control and the T/C [10] was 105 % of control.

With CS(C)=O.CS(C)=O.CS(C)=O.[Cl][Rh]([Cl])[Cl] the T/C (dose: 3.12 mg/kg/injection, schedule: Q01DX009 (ip), vehicle: saline) was 114 % of control, the T/C [11] was 114 % of control and the T/C [1] was 116 % of control. The T/C [2] was 104 % of control and 116 % of control, the T/C [3] was 116 % of control and the T/C [4] was 100 % of control. The T/C [6] was 109 % of control.

For CC(C)n1c(=S)[nH]c2ccccc2c1=O, the T/C (dose: 100.0 mg/kg/injection, schedule: Q01DX001 (ip), vehicle: Klucel (hydroxypropylcellulose) (HPC)) was 100 % of control, the T/C (dose: 200.0 mg/kg/injection, schedule: Q01DX001 (ip), vehicle: Klucel (hydroxypropylcellulose) (HPC)) was 100 % of control and the T/C (dose: 400.0 mg/kg/injection, schedule: Q01DX001 (ip), vehicle: Klucel (hydroxypropylcellulose) (HPC)) was 100 % of control.

For CC1(C)C=C(C(Br)c2cccc(Cl)c2)C(=O)c2ccccc21 (configuration not stated), the T/C [12] was 105 % of control, the T/C [13] was 104 % of control and the T/C [14] was 120 % of control. The T/C [15] was 104 % of control, the T/C [16] was 100 % of control and the T/C [17] was 95 % of control.

In the case of C[Si](C)(C)O/C=C1/CCOC1=O, the T/C [8] is reported as 102 % of control, the T/C [9] is reported as 110 % of control and the T/C [10] is reported as 119 % of control. The T/C (dose: 400.0 mg/kg/injection, schedule: Q01DX009 (ip), vehicle: saline with Tween-80) was 117 % of control.

CC1CN1P(=O)(OCCC#N)N1CC1C (configuration not stated) was tested, and the T/C [2] was 115 % of control, the T/C [3] was 97 % of control and the T/C (dose: 100.0 mg/kg/injection, schedule: Q04DX003 (ip), vehicle: other) was 163 % of control. For the same compound, the T/C (dose: 150.0 mg/kg/injection, schedule: Q01DX009 (ip), vehicle: other) was 170 % of control, the T/C [7] was 160 % of control and 203 % of control and the T/C (dose: 200.0 mg/kg/injection, schedule: Q04DX003 (ip), vehicle: other) was 227 % of control.

With CCCCC(=O)C1=C(O)C(Nc2ccccc2)=CC(=O)C1=Nc1ccccc1 the T/C [18] was 98 % of control, the T/C (dose: 200.0 mg/kg/injection, schedule: Q04DX003 (ip), vehicle: saline with Tween-80) was 103 % of control and the T/C [19] was 100 % of control.

For CO[C@H]1/C=C/O[C@@]2(C)Oc3c(C)c(O)c4c(O)c(c(/C=N/N5CCN(C)CC5)c(O)c4c3C2=O)NC(=O)/C(C)=C\C=C\[C@H](C)[C@H](O)[C@@H](C)[C@@H](O)[C@@H](C)[C@H](OC(C)=O)[C@@H]1C, the T/C (dose: 50.0 mg/kg/injection, schedule: Q01DX010 (ip), vehicle: saline) was 109 % of control, the T/C (dose: 100.0 mg/kg/injection, schedule: Q01DX010 (ip), vehicle: saline) was 114 % of control and the T/C (dose: 200.0 mg/kg/injection, schedule: Q01DX010 (ip), vehicle: saline) was 109 % of control. The T/C (dose: 400.0 mg/kg/injection, schedule: Q01DX010 (ip), vehicle: saline) was 109 % of control.

C/C=C1/C[C@@H](C)[C@@](C)(O)C(=O)OCC2=CC[N+]3([O-])CC[C@@H](OC1=O)[C@@H]23 (some centres not stated) was tested, and the T/C (dose: 10.0 mg/kg/injection, schedule: Q01DX010 (ip), vehicle: saline) was 109 % of control, the T/C (dose: 20.0 mg/kg/injection, schedule: Q01DX010 (ip), vehicle: saline) was 104 % of control and the T/C (dose: 40.0 mg/kg/injection, schedule: Q01DX010 (ip), vehicle: saline) was 113 % of control. For the same compound, the T/C (dose: 80.0 mg/kg/injection, schedule: Q01DX010 (ip), vehicle: saline) was 109 % of control.

C(=N\C(/N=C/c1ccccc1)c1ccccc1)/c1ccccc1 was tested, and the T/C [12] was 91 % of control, the T/C [13] was 100 % of control and the T/C [15] was 95 % of control. For the same compound, the T/C [16] was 87 % of control and the T/C [17] was 100 % of control.

For CC(C)(C)C(=O)CC(=O)C(F)(F)C(F)(F)C(F)(F)F.CC(C)(C)C(=O)CC(=O)C(F)(F)C(F)(F)C(F)(F)F.CC(C)(C)C(=O)CC(=O)C(F)(F)C(F)(F)C(F)(F)F.[Fe], the T/C [12] was 97 % of control, the T/C [14] was 114 % of control and the T/C [16] was 97 % of control.

With CCn1cnc2c(C(F)(F)F)nc(N)nc21 the T/C [20] was 100 % of control, the T/C [21] was 110 % of control and the T/C [22] was 110 % of control.

With CCOC(=O)NC(CC)CO (configuration not stated) the T/C [12] was 100 % of control, the T/C [14] was 95 % of control and the T/C [16] was 90 % of control.

CC1(Cl)C(=O)NC(=O)C1Cl (configuration not stated) was tested, and the T/C (dose: 3.12 mg/kg/injection, schedule: Q04DX003 (ip), vehicle: saline) was 92 % of control, the T/C (dose: 6.25 mg/kg/injection, schedule: Q04DX003 (ip), vehicle: saline) was 95 % of control and the T/C (dose: 12.5 mg/kg/injection, schedule: Q04DX003 (ip), vehicle: saline) was 100 % of control. For the same compound, the T/C [23] was 104 % of control, the T/C [4] was 104 % of control and the T/C [6] was 113 % of control.

In the case of CC[N+](C)(C)Cc1ccccc1, the T/C [11] is reported as 106 % of control and the T/C [1] is reported as 106 % of control.

With COc1cc(C(C2=C(O)c3ccccc3C(=O)C2=O)C2=C(O)c3ccccc3C(=O)C2=O)cc(Br)c1O the T/C (dose: 33.0 mg/kg/injection, schedule: Q01DX001 (ip), vehicle: saline) was 95 % of control, the T/C (dose: 50.0 mg/kg/injection, schedule: Q01DX001 (ip), vehicle: saline) was 104 % of control and the T/C (dose: 75.0 mg/kg/injection, schedule: Q01DX001 (ip), vehicle: saline) was 100 % of control. For the same compound, the T/C (dose: 100.0 mg/kg/injection, schedule: Q01DX001 (ip), vehicle: saline) was 115 % of control and the T/C (dose: 200.0 mg/kg/injection, schedule: Q01DX001 (ip), vehicle: saline) was 110 % of control.

O=S1(=O)CC2(N3CCOCC3)C3CCC(C3)C21 (configuration not stated) was tested, and the T/C [18] was 111 % of control and the T/C [19] was 92 % of control.

For Nc1ccc2ccccc2c1N=Nc1ccccc1, the T/C [13] was 109 % of control and the T/C [15] was 123 % of control.

In the case of N#CC(Br)(Br)C(N)=O, the T/C (dose: 2.5 mg/kg/injection, schedule: Q01DX009 (ip), vehicle: saline) is reported as 115 % of control and the T/C (dose: 5.0 mg/kg/injection, schedule: Q01DX009 (ip), vehicle: saline) is reported as 102 % of control.

In the case of COc1cc(N2CCOCC2)ccc1N, the T/C (dose: 1.56 mg/kg/injection, schedule: Q01DX009 (ip), vehicle: saline) is reported as 154 % of control, the T/C [11] is reported as 122 % of control and the T/C [23] is reported as 118 % of control. For the same compound, the T/C (dose: 44.0 mg/kg/injection, schedule: Q04DX003 (ip), vehicle: saline) was 108 % of control and the T/C (dose: 66.0 mg/kg/injection, schedule: Q04DX003 (ip), vehicle: saline) was 116 % of control.

CCOC(=O)CNC(=O)C(CC(C)C)NC(=O)C1CCCN1C(=O)OCc1ccccc1 (stereo not drawn) (Cbz-Pro-Leu-Gly-OEt; configuration not given here) was tested, and the T/C [20] was 124 % of control, the T/C [21] was 89 % of control and the T/C [22] was 95 % of control. The T/C [13] was 87 % of control, the T/C [15] was 91 % of control and the T/C [17] was 87 % of control.

NCCOCC(N)C(=O)O (configuration not stated) was tested, and the T/C [3] was 109 % of control, the T/C [5] was 105 % of control and the T/C [7] was 98 % of control.

With NC(=O)SCC(N)C(=O)O (configuration not stated) the T/C [3] was 115 % of control, the T/C [5] was 115 % of control and the T/C [7] was 118 % of control.

In the case of CC1(C)C2CC=C(C[P+](c3ccccc3)(c3ccccc3)c3ccccc3)C1C2 (configuration not stated), the T/C (dose: 3.3 mg/kg/injection, schedule: Q01DX009 (ip), vehicle: saline sonified) is reported as 120 % of control.
